In ChEMBL document CHEMBL2407054, “Synthesis and antimicrobial activity of imidazole and pyridine appended cholestane-based conjugates” (2013):
≈ marks a conversion by molar mass, not a printed value.

Tests used:
[1] = tested on: Salmonella typhimurium; experiment: Antibacterial activity against Salmonella typhimurium ATCC 13311 by M07-A9 CLSI method; assay type: functional, Salmonella enterica subsp. enterica serovar Typhimurium; details: Salmonella enterica
[2] = tested on: Proteus vulgaris; experiment: Antibacterial activity against Proteus vulgaris 6059 by M07-A9 CLSI method; assay type: functional
[3] = tested on: Escherichia coli; experiment: Antibacterial activity against Escherichia coli ATCC 25922 by M07-A9 CLSI method; assay type: functional
[4] = tested on: Staphylococcus aureus; experiment: Antibacterial activity against Staphylococcus aureus 241 by M07-A9 CLSI method; assay type: functional
[5] = tested on: Bacillus licheniformis; experiment: Antibacterial activity against Bacillus licheniformis EMR by M07-A9 CLSI method; assay type: functional
[6] = tested on: Kocuria rhizophila; experiment: Antibacterial activity against Micrococcus luteus ATCC 9341 by M07-A9 CLSI method; assay type: functional
[7] = tested on: Enterococcus faecalis; experiment: Antibacterial activity against Enterococcus faecalis ATCC 29212 by M07-A9 CLSI method; assay type: functional
[8] = tested on: Klebsiella aerogenes; experiment: Antibacterial activity against Klebsiella aerogenes (SHV-1) 1976E by M07-A9 CLSI method; assay type: functional
[9] = tested on: Staphylococcus aureus; experiment: Antibacterial activity against Staphylococcus aureus Giorgio by M07-A9 CLSI method; assay type: functional
[10] = tested on: Bacillus subtilis; experiment: Antibacterial activity against Bacillus subtilis ATCC 6633 by M07-A9 CLSI method; assay type: functional
[11] = tested on: Staphylococcus aureus; experiment: Antibacterial activity against Staphylococcus aureus ATCC 6538P by M07-A9 CLSI method; assay type: functional
[12] = tested on: Pseudomonas aeruginosa; experiment: Antibacterial activity against Pseudomonas aeruginosa 6065Y by M07-A9 CLSI method; assay type: functional
[13] = tested on: Bacillus cereus; experiment: Antibacterial activity against Bacillus cereus ATCC 27348 by M07-A9 CLSI method; assay type: functional
[14] = tested on: Staphylococcus aureus; experiment: Antibacterial activity against Staphylococcus aureus 77 by M07-A9 CLSI method; assay type: functional
[15] = tested on: Staphylococcus epidermidis; experiment: Antibacterial activity against Staphylococcus epidermidis 887E by M07-A9 CLSI method; assay type: functional
[16] = tested on: Staphylococcus aureus; experiment: Antibacterial activity against Staphylococcus aureus ATCC 25923 by M07-A9 CLSI method; assay type: functional
[17] = tested on: Klebsiella pneumoniae; experiment: Antibacterial activity against Klebsiella pneumoniae 2011E by M07-A9 CLSI method; assay type: functional

Compound | MIC [1] | MIC [2] | MIC [3] | MIC [4] | MIC [5] | MIC [6] | MIC [7] | MIC [8] | MIC [9] | MIC [10] | MIC [11] | MIC [12] | MIC [13] | MIC [14] | MIC [15] | MIC [16] | MIC [17]
CC(C)CCC[C@@H](C)[C@H]1CC[C@H]2[C@@H]3[C@H](NCCc4ccccn4)C[C@H]4C[C@H](NCCc5ccccn5)CC[C@]4(C)[C@H]3CC[C@]12C | > 32 µg/mL | > 32 µg/mL | > 32 µg/mL | 8 µg/mL (≈ 13.1 µM) | 8 µg/mL (≈ 13.1 µM) | 8 µg/mL (≈ 13.1 µM) | 16 µg/mL (≈ 26.1 µM) | > 32 µg/mL | 8 µg/mL (≈ 13.1 µM) | 8 µg/mL (≈ 13.1 µM) | 8 µg/mL (≈ 13.1 µM) | > 32 µg/mL | 32 µg/mL (≈ 52.2 µM) | 16 µg/mL (≈ 26.1 µM) | 8 µg/mL (≈ 13.1 µM) | 8 µg/mL (≈ 13.1 µM) | > 32 µg/mL
CC(C)CCC[C@@H](C)[C@H]1CC[C@H]2[C@@H]3[C@H](NCCn4ccnc4)C[C@H]4C[C@H](NCCn5ccnc5)CC[C@]4(C)[C@H]3CC[C@]12C | > 32 µg/mL | > 32 µg/mL | > 32 µg/mL | 16 µg/mL (≈ 27.1 µM) | 32 µg/mL (≈ 54.2 µM) | 4 µg/mL (≈ 6.77 µM) | 16 µg/mL (≈ 27.1 µM) | > 32 µg/mL | 4 µg/mL (≈ 6.77 µM) | 8 µg/mL (≈ 13.5 µM) | 4 µg/mL (≈ 6.77 µM) | > 32 µg/mL | 16 µg/mL (≈ 27.1 µM) | 4 µg/mL (≈ 6.77 µM) | 16 µg/mL (≈ 27.1 µM) | 8 µg/mL (≈ 13.5 µM) | > 32 µg/mL
CN[C@H](CC(C)C)C(=O)N[C@H]1C(=O)N[C@@H](CC(N)=O)C(=O)N[C@H]2C(=O)N[C@H]3C(=O)N[C@H](C(=O)N[C@H](C(=O)O)c4cc(O)cc(O)c4-c4cc3ccc4O)[C@H](O)c3ccc(c(Cl)c3)Oc3cc2cc(c3O[C@@H]2O[C@H](CO)[C@@H](O)[C@H](O)[C@H]2O[C@H]2C[C@](C)(N)[C@H](O)[C@H](C)O2)Oc2ccc(cc2Cl)[C@H]1O [VANCOMYCIN] | > 32 µg/mL | > 32 µg/mL | > 32 µg/mL |  | > 32 µg/mL | 1 µg/mL (≈ 0.69 µM) | 2 µg/mL (≈ 1.38 µM) | > 32 µg/mL |  | 2 µg/mL (≈ 1.38 µM) |  | > 32 µg/mL | > 32 µg/mL |  |  |  | > 32 µg/mL
CC(C)CCC[C@@H](C)[C@H]1CC[C@H]2[C@@H]3[C@H](NCc4ccccn4)C[C@H]4C[C@H](NCc5ccccn5)CC[C@]4(C)[C@H]3CC[C@]12C | > 32 µg/mL | > 32 µg/mL | > 32 µg/mL | 2 µg/mL (≈ 3.42 µM) | 2 µg/mL (≈ 3.42 µM) | 2 µg/mL (≈ 3.42 µM) | 4 µg/mL (≈ 6.84 µM) | > 32 µg/mL | 2 µg/mL (≈ 3.42 µM) | 2 µg/mL (≈ 3.42 µM) | 2 µg/mL (≈ 3.42 µM) | > 32 µg/mL | 8 µg/mL (≈ 13.7 µM) | 2 µg/mL (≈ 3.42 µM) | 1 µg/mL (≈ 1.71 µM) | 2 µg/mL (≈ 3.42 µM) | > 32 µg/mL
Cc1onc(-c2ccccc2)c1C(=O)N[C@@H]1C(=O)N2[C@@H]1SC(C)(C)[C@@H]2C(=O)O [OXACILLIN] | > 32 µg/mL | > 32 µg/mL | > 32 µg/mL | > 32 µg/mL | > 32 µg/mL | 0.03 µg/mL (≈ 0.0747 µM) | 32 µg/mL (≈ 79.7 µM) | > 32 µg/mL | 0.5 µg/mL (≈ 1.25 µM) | 16 µg/mL (≈ 39.9 µM) | 0.25 µg/mL (≈ 0.623 µM) | > 32 µg/mL | > 32 µg/mL | 4 µg/mL (≈ 9.96 µM) | > 32 µg/mL | 0.25 µg/mL (≈ 0.623 µM) | > 32 µg/mL
CC(C)CCC[C@@H](C)[C@H]1CC[C@H]2[C@@H]3C(=O)C[C@H]4C[C@H](NCc5ccccn5)CC[C@]4(C)[C@H]3CC[C@]12C | > 32 µg/mL | > 32 µg/mL | > 32 µg/mL | 32 µg/mL (≈ 64.9 µM) | 32 µg/mL (≈ 64.9 µM) | 8 µg/mL (≈ 16.2 µM) | 8 µg/mL (≈ 16.2 µM) | > 32 µg/mL | 4 µg/mL (≈ 8.12 µM) | 4 µg/mL (≈ 8.12 µM) | 2 µg/mL (≈ 4.06 µM) | > 32 µg/mL | 16 µg/mL (≈ 32.5 µM) | 32 µg/mL (≈ 64.9 µM) | 4 µg/mL (≈ 8.12 µM) | 4 µg/mL (≈ 8.12 µM) | > 32 µg/mL
CC(C)CCC[C@@H](C)[C@H]1CC[C@H]2[C@@H]3C(=O)C[C@H]4C[C@H](NCCc5ccccn5)CC[C@]4(C)[C@H]3CC[C@]12C | > 32 µg/mL | > 32 µg/mL | > 32 µg/mL | > 32 µg/mL | 32 µg/mL (≈ 63.1 µM) | 32 µg/mL (≈ 63.1 µM) | 16 µg/mL (≈ 31.6 µM) | > 32 µg/mL | 8 µg/mL (≈ 15.8 µM) | 32 µg/mL (≈ 63.1 µM) | 8 µg/mL (≈ 15.8 µM) | > 32 µg/mL | > 32 µg/mL | 32 µg/mL (≈ 63.1 µM) | 16 µg/mL (≈ 31.6 µM) | 8 µg/mL (≈ 15.8 µM) | > 32 µg/mL
CC(C)CCC[C@@H](C)[C@H]1CC[C@H]2[C@@H]3[C@H](NCCCn4ccnc4)C[C@H]4C[C@H](NCCCn5ccnc5)CC[C@]4(C)[C@H]3CC[C@]12C | > 32 µg/mL | > 32 µg/mL | > 32 µg/mL | 4 µg/mL (≈ 6.46 µM) | 4 µg/mL (≈ 6.46 µM) | 4 µg/mL (≈ 6.46 µM) | 4 µg/mL (≈ 6.46 µM) | > 32 µg/mL | 4 µg/mL (≈ 6.46 µM) | 4 µg/mL (≈ 6.46 µM) | 2 µg/mL (≈ 3.23 µM) | > 32 µg/mL | 8 µg/mL (≈ 12.9 µM) | 4 µg/mL (≈ 6.46 µM) | 4 µg/mL (≈ 6.46 µM) | 2 µg/mL (≈ 3.23 µM) | > 32 µg/mL
CC(C)CCC[C@@H](C)[C@H]1CC[C@H]2[C@@H]3C(=O)C[C@H]4C[C@H](NCCc5cnc[nH]5)CC[C@]4(C)[C@H]3CC[C@]12C | > 32 µg/mL | > 32 µg/mL | > 32 µg/mL | 32 µg/mL (≈ 64.5 µM) | 32 µg/mL (≈ 64.5 µM) | 16 µg/mL (≈ 32.3 µM) | 16 µg/mL (≈ 32.3 µM) | > 32 µg/mL | 16 µg/mL (≈ 32.3 µM) | 32 µg/mL (≈ 64.5 µM) | 8 µg/mL (≈ 16.1 µM) | > 32 µg/mL | 32 µg/mL (≈ 64.5 µM) | 16 µg/mL (≈ 32.3 µM) | 16 µg/mL (≈ 32.3 µM) | 16 µg/mL (≈ 32.3 µM) | > 32 µg/mL
CC(C)CCC[C@@H](C)[C@H]1CC[C@H]2[C@@H]3[C@H](NCCc4cnc[nH]4)C[C@H]4C[C@H](NCCc5cnc[nH]5)CC[C@]4(C)[C@H]3CC[C@]12C [3ALPHA,7ALPHA-BIS[2-(5-IMIDAZOLYL)ETHYL]AMINO-5ALPHA-CHOLESTANE] | > 32 µg/mL | > 32 µg/mL | > 32 µg/mL | 8 µg/mL (≈ 13.5 µM) | > 32 µg/mL | 16 µg/mL (≈ 27.1 µM) | 8 µg/mL (≈ 13.5 µM) | > 32 µg/mL | 8 µg/mL (≈ 13.5 µM) | > 32 µg/mL | 4 µg/mL (≈ 6.77 µM) | > 32 µg/mL | 32 µg/mL (≈ 54.2 µM) | 8 µg/mL (≈ 13.5 µM) | 8 µg/mL (≈ 13.5 µM) | 8 µg/mL (≈ 13.5 µM) | > 32 µg/mL
CC(C)CCC[C@@H](C)[C@H]1CC[C@H]2[C@@H]3C(=O)C[C@H]4C[C@H](NCCn5ccnc5)CC[C@]4(C)[C@H]3CC[C@]12C | > 32 µg/mL | > 32 µg/mL | > 32 µg/mL | 16 µg/mL (≈ 32.3 µM) | 32 µg/mL (≈ 64.5 µM) | 8 µg/mL (≈ 16.1 µM) | 8 µg/mL (≈ 16.1 µM) | > 32 µg/mL | 8 µg/mL (≈ 16.1 µM) | 32 µg/mL (≈ 64.5 µM) | 8 µg/mL (≈ 16.1 µM) | > 32 µg/mL | 32 µg/mL (≈ 64.5 µM) | > 32 µg/mL | 16 µg/mL (≈ 32.3 µM) | 8 µg/mL (≈ 16.1 µM) | > 32 µg/mL
CC(C)CCC[C@@H](C)[C@H]1CC[C@H]2[C@@H]3C(=O)C[C@H]4C[C@H](NCCCn5ccnc5)CC[C@]4(C)[C@H]3CC[C@]12C | > 32 µg/mL | > 32 µg/mL | > 32 µg/mL | 32 µg/mL (≈ 62.8 µM) | 32 µg/mL (≈ 62.8 µM) | 8 µg/mL (≈ 15.7 µM) | 32 µg/mL (≈ 62.8 µM) | > 32 µg/mL | 8 µg/mL (≈ 15.7 µM) | 8 µg/mL (≈ 15.7 µM) | 8 µg/mL (≈ 15.7 µM) | > 32 µg/mL | 16 µg/mL (≈ 31.4 µM) | 8 µg/mL (≈ 15.7 µM) | 16 µg/mL (≈ 31.4 µM) | 8 µg/mL (≈ 15.7 µM) | > 32 µg/mL
